In US20240252497A1, “USE OF COMPLEMENT FACTOR D INHIBITOR FOR TREATMENT OF GEOGRAPHIC ATROPHY SECONDARY TO AGE-RELATED MACULAR DEGENERATION” (Alexion Pharmaceuticals, Inc., priority 2021, published 2024):

Columns and labels:
[1] = Ocular distribution of Compound 1 after oral administration; type: in vivo
Text: As an orally administered small molecule, Compound 1 is advantageous over therapeutic agents being investigated for the use in treating GA, which rely in intravitreal administration. In this regard, oral CFD inhibitors, such as Compound 1, not only provide GA patients with a more convenient and accessible option for therapy, but also help reduce the patient and caregiver burden for by lowering the need for clinical visits and minimize the risk of ocular injection-related adverse events. […] Given the overall pharmaceutical profile of Compound 1, the present disclosure provides that a treatment regimen with Compound 1 leads to better patient compliance and improved clinical outcomes in patients with GA.

[2] = MAD study (tolerability, liver enzymes); type: in vivo, human; settings: high doses, after dosing was ceased
Method: The 100 mg BID, 200 mg BID, and 400 mg QD dose regimens proposed for this study are based on simulation results. […] Based on data from the literature, retina and choroid RPE on the retinal side are more likely to be the target eye tissues. However, the choroid RPE on the capillary bed side cannot be completely ruled out as a potential target. The proposed doses allow for the assessment of two different dosing intervals, i.e., BID vs QD. The 400 mg QD dosing regimen, if shown to be safe and effective, would be more convenient for patients and encourage better compliance relative to bid dosing. An up to 2-fold uncertainty of model prediction on PK and APH inhibition in the target eye tissues is anticipated as the physiological eye parameters in humans were translated from Dutch-Belted rabbits. […] The elevations were transient and not considered of clinical significance. […] A dose taper was instituted in subsequent studies as a risk mitigation measure.

blood-retina barrier crossing [1]: cross the blood-retina barrier
Structure (SMILES): CC(=O)c1nn(CC(=O)N2C[C@H](F)C[C@H]2C(=O)Nc2cccc(Br)n2)c2ccc(-c3cnc(C)nc3)cc12 [Compound 1, (2S,4R)-1-(2-(3-acetyl-5-(2-methylpyrimidin-5-yl)-1H-indazol-1-yl)acetyl)-N-(6-bromopyridin-2-yl)-4-fluoropyrrolidine-2-carboxamide]
retention in ocular tissues after oral administration ([1]; choroid and retinal pigment epithelium (RPE)): selective retention in ocular tissues containing melanin
ALT elevations [2]: ALT elevations were observed at high doses in 2 subjects after dosing was ceased
